According to patent US8129398B2 (priority 2008, dated 2012):

Biological target: T1, HIV-integrase (Human immunodeficiency virus type 1 group M subtype B, UniProt P12497)
T1 construct: Recombinant integrase (0.26 ng) was incubated with the beads
Test: HIV-Integrase Inhibition Activity (SPA bead integration assay with P33 labeled target DNA)
Assay type: biochemical
Conditions: in vitro activity, recombinant integrase, class symbols
Summary of the method: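 Strand integration read as bead-proximity CPM after P33 target DNA (0.1 fmol) and inhibitor were added to washed integrase–substrate DNA complexes on SPA beads. Enzyme bound 90 min at 37° C; EDTA (10 mM final) terminated reaction; IC50 graded A/B/C.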

Row | SMILES | IC50 [nM]
1 | CC(=O)N[C@H]1c2nc(C(=O)NCc3ccc(F)cc3)c(O)c(=O)n2C[C@H]2CC[C@]1(C)C2(C)C [Example 184, (7S,10R,11R)-11-(Acetylamino)-N-(4-fluorobenzyl)-3-hydroxy-10,12,12-trimethyl-4-oxo-6,7,8,9,10,11-hexahydro-4H-7,10-methanopyrimido[1,2-a]azocine-2-carboxamide] | 10 to 100
2 | CC1(C)[C@@H]2CC[C@@]1(C)[C@@H](NS(C)(=O)=O)c1nc(C(=O)NCc3ccc(F)cc3)c(O)c(=O)n1C2 [Example 185, (7S,10R,11R)—N-(4-Fluorobenzyl)-3-hydroxy-10,12,12-trimethyl-11-((methylsulfonyl)amino)-4-oxo-6,7,8,9,10,11-hexahydro-4H-7,10-methanopyrimido[1,2-a]azocine-2-carboxamide] | > 100

Same assay, conditions: recombinant integrase, class symbols; read-out: in vitro activity

Row | SMILES | IC50 [nM]
3 | Cc1cc(CNC(=O)c2nc3n(c(=O)c2O)CC2CCC3(N(C)C(=O)C(=O)N(C)Cc3cn(C)nc3C)CC2)ccc1F [Example 170, N-((1,3-Dimethyl-1H-pyrazol-4-yl)methyl)-N′-(2-((4-fluoro-3-methylbenzyl)carbamoyl)-3-hydroxy-4-oxo-6,7,8,9-tetrahydro-7,10-ethanopyrimido[1,2-a]azepin-10(4H)-yl)-N,N′-dimethylethanediamide] | < 10
4 | Cc1c(CN(C)C(=O)C(=O)N(C)C23CCC(CC2)Cn2c3nc(C(=O)NCc3ccc(F)cc3)c(O)c2=O)cnn1C [Example 171, N-((1,5-Dimethyl-1H-pyrazol-4-yl)methyl)-N′-(2-((4-fluorobenzyl)carbamoyl)-3-hydroxy-4-oxo-6,7,8,9-tetrahydro-7,10-ethanopyrimido[1,2-a]azepin-10(4H)-yl)-N,N′-dimethylethanediamide] | < 10
5 | Cc1cc(CNC(=O)c2nc3n(c(=O)c2O)CC2CCC3(N(C)C(=O)C(=O)N(C)Cc3cnn(C)c3C)CC2)ccc1F [Example 172, N-((1,5-Dimethyl-1H-pyrazol-4-yl)methyl)-N′-(2-((4-fluoro-3-methylbenzyl)carbamoyl)-3-hydroxy-4-oxo-6,7,8,9-tetrahydro-7,10-ethanopyrimido[1,2-a]azepin-10(4H)-yl)-N,N′-dimethylethanediamide] | < 10
6 | CCN(C(=O)C(=O)N(C)C)C12CCC(CC1)Cn1c2nc(C(=O)NCc2ccc(F)cc2)c(O)c1=O [Example 173, N-Ethyl-N-(2-((4-fluorobenzyl)carbamoyl)-3-hydroxy-4-oxo-6,7,8,9-tetrahydro-7,11-ethanopyrimido[1,2-a]azepin-10(4H)-yl)-N′,N′-dimethylethanediamide] | < 10
7 | CN(C)C(=O)C(=O)N(CCO)C12CCC(CC1)Cn1c2nc(C(=O)NCc2ccc(F)cc2)c(O)c1=O [Example 175, N-(2-((4-Fluorobenzyl)carbamoyl)-3-hydroxy-4-oxo-6,7,8,9-tetrahydro-7,10-ethanopyrimido[1,2-a]azepin-10(4H)-yl)-N-(2-hydroxyethyl)-N′,N′-dimethylethanediamide] | < 10
8 | CN(C)C(=O)C(=O)OCCNC12CCC(CC1)Cn1c2nc(C(=O)NCc2ccc(F)cc2)c(O)c1=O [Example 176] | 10 to 100
9 | CN(C)C(=O)C(=O)NC12CCC(C)(CC1)Cn1c2nc(C(=O)NCc2ccc(F)cc2)c(O)c1=O [Example 180, Ethanediamide, N′-[2-[[[(4-fluorophenyl)methyl]amino]carbonyl]-6,7,8,9-tetrahydro-3-hydroxy-7-methyl-4-oxo-7,10-ethanopyrimido[1,2-a]azepin-10(4H)-yl]-N,N-dimethyl-] | < 10
10 | CC1(C)[C@@H]2CC[C@@]1(C)[C@@H](NC(=O)OCc1ccccc1)c1nc(C(=O)NCc3ccc(F)cc3)c(O)c(=O)n1C2 [Example 181, Benzyl((7S,10R,11R)-2-((4-fluorobenzyl)carbamoyl)-3-hydroxy-10,12,12-trimethyl-4-oxo-6,7,8,9,10,11-hexahydro-4H-7,10-methanopyrimido[1,2-a]azocin-11-yl)carbamate] | 10 to 100
11 | CC1(C)[C@@H]2CC[C@@]1(C)[C@@H](N)c1nc(C(=O)NCc3ccc(F)cc3)c(O)c(=O)n1C2 [Example 182, (7S,10R,11R)-11-Amino-N-(4-fluorobenzyl)-3-hydroxy-10,12,12-trimethyl-4-oxo-6,7,8,9,10,11-hexahydro-4H-7,10-methanopyrimido[1,2-a]azocine-2-carboxamide] | > 100
12 | CN(C)C(=O)C(=O)N[C@H]1c2nc(C(=O)NCc3ccc(F)cc3)c(O)c(=O)n2C[C@H]2CC[C@]1(C)C2(C)C [Example 183, N′-((7S,10R,11R)-2-((4-Fluorobenzyl)carbamoyl)-3-hydroxy-10,12,12-trimethyl-4-oxo-6,7,8,9,10,11-hexahydro-4H-7,10-methanopyrimido[1,2-a]azocin-11-yl)-N,N-dimethylethanediamide] | 10 to 100
13 | CN(C)C(=O)C(=O)NC12CCCC(Cn3c1nc(C(=O)NCc1ccc(F)cc1)c(O)c3=O)C2 (stereo not drawn) [Example 186, Ethanediamide, N′-[2-[[[(4-fluorophenyl)methyl]amino]carbonyl]-7,8,9,10-tetrahydro-3-hydroxy-4-oxo-7,11-methano-4H-pyrimido[1,2-a]azocin-11(6H)-yl]-N,N-dimethyl-] | < 10
14 | CC(=O)NC12CCCC(Cn3c1nc(C(=O)NCc1ccc(F)cc1)c(O)c3=O)C2 (stereo not drawn) [Example 187, 7,11-Methano-4H-pyrimido[1,2-a]azocine-2-carboxamide, 11-(acetylamino)-N-[(4-fluorophenyl)methyl]-6,7,8,9,10,11-hexahydro-3-hydroxy-4-oxo-] | < 10
15 | CN(C)C(=O)C(=O)NC12CCC(Cn3c1nc(C(=O)NCc1ccc(F)cc1)c(O)c3=O)C2 (stereo not drawn) [Example 188, Ethanediamide, N′-[2-[[[(4-fluorophenyl)methyl]amino]carbonyl]-6,7,8,9-tetrahydro-3-hydroxy-4-oxo-7,11-methanopyrimido[1,2-a]azepin-10(4H)-yl]-N,N-dimethyl-] | < 10
16 | O=C(NC12CCC(Cn3c1nc(C(=O)NCc1ccc(F)cc1)c(O)c3=O)C2)OCc1ccccc1 (stereo not drawn) [Example 189, Carbamic acid, [2-[[[(4-fluorophenyl)methyl]amino]carbonyl]-6,7,8,9-tetrahydro-3-hydroxy-4-oxo-7,10-methanopyrimido[1,2-a]azepin-10(4H)-yl]-, phenylmethyl ester] | < 10
17 | NC12CCC(Cn3c1nc(C(=O)NCc1ccc(F)cc1)c(O)c3=O)C2 (stereo not drawn) [Example 190, 7,10-Methanopyrimido[1,2-a]azepine-2-carboxamide, 10-amino-N-[(4-fluorophenyl)methyl]-4,6,7,8,9,10-hexahydro-3-hydroxy-4-oxo-] | 10 to 100
18 | CC(=O)NC12CCC(Cn3c1nc(C(=O)NCc1ccc(F)cc1)c(O)c3=O)C2 (stereo not drawn) [Example 191, 7,10-Methanopyrimido[1,2-a]azepine-2-carboxamide, 10-(acetylamino)-N-[(4-fluorophenyl)methyl]-4,6,7,8,9,10-hexahydro-3-hydroxy-4-oxo-] | < 10
19 | CS(=O)(=O)NC12CCC(Cn3c1nc(C(=O)NCc1ccc(F)cc1)c(O)c3=O)C2 (stereo not drawn) [Example 192, 7,10-Methanopyrimido[1,2-a]azepine-2-carboxamide, N-[(4-fluorophenyl)methyl]-4,6,7,8,9,10-hexahydro-3-hydroxy-10-[(methylsulfonyl)amino]-4-oxo-] | < 10
20 | CNC(=O)C(=O)NC12CCC(Cn3c1nc(C(=O)NCc1ccc(F)cc1)c(O)c3=O)C2 (stereo not drawn) [Example 193, Ethanediamide, N-[2-[[[(4-fluorophenyl)methyl]amino]carbonyl]-6,7,8,9-tetrahydro-3-hydroxy-4-oxo-7,10-methanopyrimido[1,2-a]azepin-10(4H)-yl]-N′-methyl-] | < 10
21 | O=C(NC12CCC(Cn3c1nc(C(=O)NCc1ccc(F)c(Cl)c1)c(O)c3=O)C2)OCc1ccccc1 (stereo not drawn) [Example 194, Carbamic acid, [2-[[[(3-chloro-4-fluorophenyl)methyl]amino]carbonyl]-6,7,8,9-tetrahydro-3-hydroxy-4-oxo-7,10-methanopyrimido[1,2-a]azepin-10(4H)-yl]-, phenylmethyl ester] | < 10
22 | CN(C)C12CCC(Cn3c1nc(C(=O)NCc1ccc(F)cc1)c(O)c3=O)C2 (stereo not drawn) [Example 195, 7,10-Methanopyrimido[1,2-a]azepine-2-carboxamide, 10-(dimethylamino)-N-[(4-fluorophenyl)methyl]-4,6,7,8,9,10-hexahydro-3-hydroxy-4-oxo-] | 10 to 100
23 | Cc1cc(CNC(=O)c2nc3n(c(=O)c2O)CC2CCC3(NC(=O)C(=O)N(C)C)C2)ccc1F (stereo not drawn) [Example 196, Ethanediamide, N′-[2-[[[(4-fluoro-3-methylphenyl)methyl]amino]carbonyl]-6,7,8,9-tetrahydro-3-hydroxy-4-oxo-7,10-methanopyrimido[1,2-a]azepin-10(4H)-yl]-N,N-dimethyl-] | < 10
24 | CN(C)C(=O)C(=O)NC12CCC(CCn3c1nc(C(=O)NCc1ccc(F)cc1)c(O)c3=O)C2 (stereo not drawn) [Example 199, Ethanediamide, N′-[2-[[[(4-fluorophenyl)methyl]amino]carbonyl]-7,8,9,10-tetrahydro-3-hydroxy-4-oxo-8,11-methano-4H-pyrimido[1,2-a]azocin-11(6H)-yl]-N,N-dimethyl-] | < 10
25 | O=C(NC12CCC(CCn3c1nc(C(=O)NCc1ccc(F)cc1)c(O)c3=O)C2)C(=O)N1CCCC1 (stereo not drawn) [Example 200, 8,11-Methano-4H-pyrimido[1,2-a]azocine-2-carboxamide, 11-[[1,2-dioxo-2-(1-pyrrolidinyl)ethyl]amino]-N-[(4-fluorophenyl)methyl]-6,7,8,9,10,11-hexahydro-3-hydroxy-4-oxo] | < 10
26 | CCN(CC)C(=O)C(=O)NC12CCC(CCn3c1nc(C(=O)NCc1ccc(F)cc1)c(O)c3=O)C2 (stereo not drawn) [Example 201] | < 10
27 | O=C(NC12CCC(CCn3c1nc(C(=O)NCc1ccc(F)cc1)c(O)c3=O)C2)C(=O)N1CC(F)(F)C1 (stereo not drawn) [Example 202, 8,1,1-Methano-4H-pyrimido[1,2-a]azocine-2-carboxamide, 1′-[[2-(3,3-difluoro-1-azetidinyl)-1,2-dioxoethyl]amino]-N-[(4-fluorophenyl)methyl]-6,7,8,9,10,11-hexahydro-3-hydroxy-4-oxo-] | < 10
